Assay results from patent US10519211B2, “Compounds as peptidic GLP1/glucagon/GIP receptor agonists” (SANOFI, priority 2016, dated 2019).
Numbered stars: 1 amine (or outer) side, 2 acyl side, 3 side chain; on linkers, the order of the positions; unused ones are H or OH. Square brackets hold non-standard residues; d marks the D form. Side chains are listed from the residue outwards. Peptide text beside a SMILES is read from it. * marks the point of attachment. γGlu = O=C(O)[C@H](CCC(=O)[*:2])N[*:1]; Stearoyl = CCCCCCCCCCCCCCCCCC(=O)*; Palmitoyl = CCCCCCCCCCCCCCCC(=O)*; AEEA = NCCOCCOCC(=O)O; Aib = CC(C)(N)C(=O)O

Assays:
[1] = target: T1, human glucagon receptor (hGlucagon R) (Homo sapiens, UniProt P47871); assay: cAMP response (HTRF) of HEK-293 cells stably expressing human glucagon receptor; type: cell-based; settings: Table 8; cAMP formation
T1 construct: expressed in transfected cells; host or cells: HEK-293
T1 sequence (P47871 26-477): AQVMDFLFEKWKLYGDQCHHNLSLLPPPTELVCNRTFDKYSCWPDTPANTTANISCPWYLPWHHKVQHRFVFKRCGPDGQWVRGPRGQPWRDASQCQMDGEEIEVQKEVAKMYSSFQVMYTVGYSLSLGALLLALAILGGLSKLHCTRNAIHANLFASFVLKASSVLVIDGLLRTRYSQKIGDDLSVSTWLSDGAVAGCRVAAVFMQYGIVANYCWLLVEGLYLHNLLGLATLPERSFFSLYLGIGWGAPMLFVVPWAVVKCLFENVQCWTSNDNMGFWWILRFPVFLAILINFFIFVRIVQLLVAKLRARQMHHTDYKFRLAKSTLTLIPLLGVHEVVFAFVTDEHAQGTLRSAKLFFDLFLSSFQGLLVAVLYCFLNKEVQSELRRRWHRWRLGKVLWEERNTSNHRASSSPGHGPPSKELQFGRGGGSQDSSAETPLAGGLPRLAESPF
Procedure: (§1) cAMP content of cells was determined using a kit from Cisbio Corp. (cat. no. 62AM4PEJ) based on HTRF (Homogenous Time Resolved Fluorescence). For preparation, cells were split into T175 culture flasks and grown overnight to near confluency in medium (DMEM/10% FBS). Medium was then removed and cells washed with PBS lacking calcium and magnesium, followed by proteinase treatment with accutase (Sigma-Aldrich cat. no. A6964). Detached cells were washed and resuspended in assay buffer (1×HBSS; 20 mM HEPES, 0.1% BSA, 2 mM IBMX) and cellular density determined. They were then diluted to 400000 cells/ml and 25 μl-aliquots dispensed into the wells of 96-well plates. For measurement, 25 μl of test compound in assay buffer was added to the wells, followed by incubation for 30 minutes at room temperature.
(§2) Potencies of peptidic compounds at the GLP-1, glucagon and GIP receptors were determined by exposing cells expressing human glucagon receptor (hGlucagon R), human GIP receptor (hGIP-R) or human GLP-1 receptor (hGLP-1 R) to the listed compounds at increasing concentrations and measuring the formed cAMP as described in Methods.

[2] = Chemical stability assessment (UPLC-UV, relative purity loss); type: physicochemical; settings: 1 mg/ml, 25 mM acetate buffer pH 4.5 with m-cresol (buffer system A)
Method in brief: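 Peptide at 1 mg/mL (purity-corrected) in 25 mM acetate pH 4.5 with methionine, m-cresol and glycerol, sterile-filtered, stored 28 days at 40° C. Purity measured by UPLC-UV as peptide peak area fraction at start and after storage; value is relative percent purity loss.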

[3] = Solubility assessment (UPLC-UV); type: physicochemical; settings: acetate buffer pH 4.5, 2.7 mg/ml m-cresol (buffer system A), target 10 mg/ml
Method in brief: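 Peptides at 10 mg/mL (purity-corrected, by UPLC/MS) in 100 mM acetate buffer pH 4.5 with 2.7 mg/ml m-Cresol, gently agitated 1 hour, then centrifuged 15 min at 2500 RCF. Supernatant, diluted 1:10, quantified by UPLC-UV peak area against a reference peptide standard curve, extinction-coefficient corrected.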

[4] = Thioflavin T (ThT) assay for physical stability (fibrillation); type: physicochemical; settings: 3 mg/ml, 100 mM acetate pH 4.5 with m-cresol, shaking at 37° C.
Method in brief: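 Peptide at 3 mg/ml with 100 μM ThT in 100 mM acetate pH 4.5 with m-cresol, stressed at 37° C by cycles of 10 s shaking at 960 rpm and 50 s rest. Fluorescence read every 20 minutes, eight replicates; lag time in hours.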

[5] = target: T2, human GLP-1 receptor (hGLP-1 R) (Homo sapiens, UniProt P43220); assay: cAMP response (HTRF) of HEK-293 cells stably expressing human GLP-1 receptor; type: cell-based; settings: Table 8; cAMP formation
T2 construct: expressed in transfected cells; host or cells: HEK-293
T2 sequence (P43220 24-463): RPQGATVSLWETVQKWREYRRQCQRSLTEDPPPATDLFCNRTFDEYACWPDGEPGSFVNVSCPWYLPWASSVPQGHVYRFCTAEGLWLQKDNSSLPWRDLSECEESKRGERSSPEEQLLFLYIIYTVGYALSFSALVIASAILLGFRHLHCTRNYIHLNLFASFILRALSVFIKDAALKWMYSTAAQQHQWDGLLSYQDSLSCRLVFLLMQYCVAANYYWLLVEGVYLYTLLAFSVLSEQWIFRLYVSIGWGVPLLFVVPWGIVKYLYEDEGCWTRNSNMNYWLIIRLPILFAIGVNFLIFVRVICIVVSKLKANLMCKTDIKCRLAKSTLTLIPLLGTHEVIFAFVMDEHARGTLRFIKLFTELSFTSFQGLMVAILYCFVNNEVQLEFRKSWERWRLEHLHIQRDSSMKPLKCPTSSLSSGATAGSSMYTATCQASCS
Procedure: as §1, §2

[6] = Dynamic light scattering (DLS), hydrodynamic radius as surrogate for interaction parameter kD; type: physicochemical; settings: for Delta Rh [nm] = Rh5 − Rh1: DLS buffer system A pH 4.5; for Rh1 [nm] c= 1 mg/ml / Rh5 [nm] c = 5 mg/ml: hydrodynamic radius, DLS buffer system A pH 4.5, DLS method C, 25° C.
Procedure: For every peptide solution, the hydrodynamic radius Rh and the diffusion constant D (related via the Stokes-Einstein equation) were determined as an average over triplicates. Both parameters were determined at different concentrations (e.g., Rh1 and D1: 1 mg/ml and Rh5 and D5: 5 mg/ml) in the same buffer system. The difference of these parameters between low and high peptide concentration is a surrogate for the DLS interaction parameter kD. Rh5<Rh1 or D5>D1 correspond to kD>0 and therefore to repulsive inter-particle interactions that result in improved physical (or colloidal) stability.
DLS buffer system A) 25 mM acetate buffer pH4.5, 3 mg/mL L-Methionine, 2.7 mg/mL m-cresol, 18 mg/mL Glycerol 85%
DLS Method C: DLS measurements were performed on a DynaPro Plate Reader II (Wyatt Technology, Santa Barbara, Calif., US) and using one of the following black, low volume, and non-treated plates: polystyrene 384 assay plate with clear bottom (Corning, N.Y., US), polystyrene 96 assay plate with clear bottom (Corning, N.Y., US), cyclo olefin polymer (COP) 384 assay plate with clear bottom (Aurora, Mont., US), or polystyrene 384 assay plate with clear bottom (Greiner Bio-One, Germany). The data were processed with the Dynamics software provided by Wyatt Technology. Parameters of the particle size distribution were determined with non-negatively constrained least squares (NNLS) methods using DynaLS algorithms. Measurements were taken at 25° C. with an 830 nm laser light source at an angle of 158°.
The hydrodynamic radius radius Rh of peptide samples was determined at different peptide concentrations (1 mg/ml and 5 mg/ml) in DLS buffer system A using DLS method C as described in Methods as surrogate for the DLS interaction parameter kD.

Compound	EC50 [1]	Chemical stability [relative purity loss 28 days 40° C.] (%) at pH 4.5 [2]	solubility at 1 h [3]	Lag time before increase [4]	EC50 [5]	Delta Rh [nm] = Rh5 − Rh1 [6]	Rh1 [nm] c= 1 mg/ml [6]	Rh5 [nm] c = 5 mg/ml [6]
CCCCCCCCCCCCCCCC(=O)N[C@@H](CCC(=O)N[C@@H](CCC(=O)NCCCC[C@H](NC(=O)[C@H](CC(C)C)NC(=O)[C@H](CCCCN)NC(=O)[C@H](CO)NC(=O)[C@H](CC(C)C)NC(=O)[C@H](CC(=O)O)NC(=O)[C@H](CO)NC(=O)[C@@H](NC(=O)[C@H](Cc1ccccc1)NC(=O)[C@@H](NC(=O)CNC(=O)[C@H](CCC(N)=O)NC(=O)C(C)(C)NC(=O)[C@@H](N)Cc1c[nH]cn1)[C@@H](C)O)[C@@H](C)O)C(=O)N[C@@H](CCC(=O)O)C(=O)N[C@@H](CCCCN)C(=O)N[C@@H](CCC(N)=O)C(=O)N[C@@H](CCCNC(=N)N)C(=O)N[C@@H](CCC(N)=O)C(=O)NC(C)(C)C(=O)N[C@@H](CCC(=O)O)C(=O)N[C@@H](Cc1ccccc1)C(=O)N[C@H](C(=O)N[C@@H](CCC(=O)O)C(=O)N[C@@H](Cc1c[nH]c2ccccc12)C(=O)N[C@@H](CC(C)C)C(=O)N[C@@H](CCCCN)C(=O)N[C@@H](C)C(=O)NCC(=O)NCC(=O)N[C@@H](Cc1c[nH]cn1)C(=O)N1CCC[C@H]1C(=O)N[C@@H](CO)C(=O)NC(C)(C)C(=O)N[C@@H](CCCCN)C(=O)N1CCC[C@H]1C(=O)N1CCC[C@H]1C(=O)N1CCC[C@H]1C(=O)N[C@@H](CCCCN)C(N)=O)[C@@H](C)CC)C(=O)O)C(=O)O [SEQ ID NO: 12, H-Aib-Q-G-T-F-T-S-D-L-S-K-L-K[gGlu-gGlu-Palm]-E-K-Q-R-Q-Aib-E-F-I-E-W-L-K-A-G-G-H-P-S-Aib-K-P-P-P-K-NH2]	0.022 nM	5.4%	> 9300 µg/mL	>45 h				
CCCCCCCCCCCCCCCC(=O)N[C@@H](CCC(=O)NCCCC[C@H](NC(=O)[C@H](CC(C)C)NC(=O)[C@H](CCCCN)NC(=O)[C@H](CO)NC(=O)[C@H](CC(C)C)NC(=O)[C@H](CC(=O)O)NC(=O)[C@H](CO)NC(=O)[C@@H](NC(=O)[C@H](Cc1ccccc1)NC(=O)[C@@H](NC(=O)CNC(=O)[C@H](CCC(N)=O)NC(=O)C(C)(C)NC(=O)[C@@H](N)Cc1c[nH]cn1)[C@@H](C)O)[C@@H](C)O)C(=O)N[C@@H](CCC(=O)O)C(=O)N[C@@H](CCCCN)C(=O)N[C@@H](CCC(N)=O)C(=O)N[C@@H](CCCNC(=N)N)C(=O)N[C@@H](CCC(N)=O)C(=O)NC(C)(C)C(=O)N[C@@H](CCC(=O)O)C(=O)N[C@@H](Cc1ccccc1)C(=O)N[C@H](C(=O)N[C@@H](CCC(=O)O)C(=O)N[C@@H](Cc1c[nH]c2ccccc12)C(=O)N[C@@H](CC(C)C)C(=O)N[C@@H](CCCCN)C(=O)N[C@@H](C)C(=O)NCC(=O)NCC(=O)N1CCC[C@H]1C(=O)N1CCC[C@H]1C(=O)N[C@@H](CO)C(=O)NC(C)(C)C(=O)N[C@@H](CCCCN)C(=O)N1CCC[C@H]1C(=O)N1CCC[C@H]1C(=O)N1CCC[C@H]1C(=O)N[C@@H](CCCCN)C(N)=O)[C@@H](C)CC)C(=O)O [SEQ ID NO: 14, H-Aib-Q-G-T-F-T-S-D-L-S-K-L-K[gGlu-Palm]-E-K-Q-R-Q-Aib-E-F-I-E-W-L-K-A-G-G-P-P-S-Aib-K-P-P-P-K-NH2]		5.5%	> 9300 µg/mL		0.0057 nM	−0.2 nm	2.7 nm	2.4 nm
CCCCCCCCCCCCCCCCCC(=O)N[C@@H](CCC(=O)NCCCC[C@H](NC(=O)[C@H](CC(C)C)NC(=O)[C@H](CCCCN)NC(=O)[C@H](CO)NC(=O)[C@H](CC(C)C)NC(=O)[C@H](CC(=O)O)NC(=O)[C@H](CO)NC(=O)[C@@H](NC(=O)[C@H](Cc1ccccc1)NC(=O)[C@@H](NC(=O)CNC(=O)[C@H](CCC(N)=O)NC(=O)C(C)(C)NC(=O)[C@@H](N)Cc1c[nH]cn1)[C@@H](C)O)[C@@H](C)O)C(=O)N[C@@H](CCC(=O)O)C(=O)N[C@@H](CCCCN)C(=O)N[C@@H](CCC(N)=O)C(=O)N[C@@H](CCCNC(=N)N)C(=O)N[C@@H](CCC(N)=O)C(=O)NC(C)(C)C(=O)N[C@@H](CCC(=O)O)C(=O)N[C@@H](Cc1ccccc1)C(=O)N[C@H](C(=O)N[C@@H](CCC(=O)O)C(=O)N[C@@H](Cc1c[nH]c2ccccc12)C(=O)N[C@@H](CC(C)C)C(=O)N[C@@H](CCCCN)C(=O)N[C@@H](C)C(=O)NCC(=O)NCC(=O)N1CCC[C@H]1C(=O)N1CCC[C@H]1C(=O)N[C@@H](CO)C(=O)NC(C)(C)C(=O)N[C@@H](CCCCN)C(=O)N1CCC[C@H]1C(=O)N1CCC[C@H]1C(=O)N1CCC[C@H]1C(=O)N[C@@H](CCCCN)C(N)=O)[C@@H](C)CC)C(=O)O [SEQ ID NO: 15, H-Aib-Q-G-T-F-T-S-D-L-S-K-L-K[gGlu-Stea]-E-K-Q-R-Q-Aib-E-F-I-E-W-L-K-A-G-G-P-P-S-Aib-K-P-P-P-K-NH2] (H-H[Aib]QGTFTSDLSKLK([γGlu-Stearoyl])EKQRQ[Aib]EFIEWLKAGGPPS[Aib]KPPPK-NH2)		5.6%	> 8900 µg/mL		0.0057 nM	−0.2 nm	2.7 nm	2.6 nm
CCCCCCCCCCCCCCCC(=O)NCCOCCOCC(=O)N[C@@H](CCC(=O)N[C@@H](CCC(=O)NCCCC[C@H](NC(=O)[C@H](CC(C)C)NC(=O)[C@H](CCCCN)NC(=O)[C@H](CO)NC(=O)[C@H](CC(C)C)NC(=O)[C@H](CC(=O)O)NC(=O)[C@H](CO)NC(=O)[C@@H](NC(=O)[C@H](Cc1ccccc1)NC(=O)[C@@H](NC(=O)CNC(=O)[C@H](CCC(N)=O)NC(=O)C(C)(C)NC(=O)[C@@H](N)Cc1c[nH]cn1)[C@@H](C)O)[C@@H](C)O)C(=O)N[C@@H](CCC(=O)O)C(=O)N[C@@H](CCCCN)C(=O)N[C@@H](CCC(N)=O)C(=O)N[C@@H](CCCNC(=N)N)C(=O)N[C@@H](CCC(N)=O)C(=O)NC(C)(C)C(=O)N[C@@H](CCC(=O)O)C(=O)N[C@@H](Cc1ccccc1)C(=O)N[C@H](C(=O)N[C@@H](CCC(=O)O)C(=O)N[C@@H](Cc1c[nH]c2ccccc12)C(=O)N[C@@H](CC(C)C)C(=O)N[C@@H](CCCCN)C(=O)N[C@@H](C)C(=O)N[C@H](C)C(=O)NCC(=O)N[C@@H](Cc1c[nH]cn1)C(=O)N1CCC[C@H]1C(=O)N[C@@H](CO)C(=O)NC(C)(C)C(=O)N[C@@H](CCCCN)C(=O)N1CCC[C@H]1C(=O)N1CCC[C@H]1C(=O)N1CCC[C@H]1C(=O)N[C@@H](CCCCN)C(N)=O)[C@@H](C)CC)C(=O)O)C(=O)O [SEQ ID NO: 17, H-Aib-Q-G-T-F-T-S-D-L-S-K-L-K[gGlu-gGlu-AEEA-Palm]-E-K-Q-R-Q-Aib-E-F-I-E-W-L-K-A-dAla-G-H-P-S-Aib-K-P-P-P-K-NH2] (H-H[Aib]QGTFTSDLSKLK([γGlu-γGlu-AEEA-Palmitoyl])EKQRQ[Aib]EFIEWLKA[dA]GHPS[Aib]KPPPK-NH2)	0.022 nM	6.4%	> 9200 µg/mL	>45 h		−0.5 nm	2.9 nm	2.4 nm
